As a reminder, the Kd is the constant that tells how readily two partners part at equilibrium.

Here are results for two compounds from patent publication US7468462B2, “Therapeutic agents for the treatment of cancer, metabolic diseases and skin disorders” (Auspex Pharmaceuticals, priority 2004, dated 2008).

In this experiment the target is T1, RAR-α (Homo sapiens, UniProt P10276).
T1 construct: The Plasmid pGEG-hRAR-α for full-length RAR-α expression; made in house; host or cells: E. coli BL21 (DE3)
T1 sequence (P10276 1-462): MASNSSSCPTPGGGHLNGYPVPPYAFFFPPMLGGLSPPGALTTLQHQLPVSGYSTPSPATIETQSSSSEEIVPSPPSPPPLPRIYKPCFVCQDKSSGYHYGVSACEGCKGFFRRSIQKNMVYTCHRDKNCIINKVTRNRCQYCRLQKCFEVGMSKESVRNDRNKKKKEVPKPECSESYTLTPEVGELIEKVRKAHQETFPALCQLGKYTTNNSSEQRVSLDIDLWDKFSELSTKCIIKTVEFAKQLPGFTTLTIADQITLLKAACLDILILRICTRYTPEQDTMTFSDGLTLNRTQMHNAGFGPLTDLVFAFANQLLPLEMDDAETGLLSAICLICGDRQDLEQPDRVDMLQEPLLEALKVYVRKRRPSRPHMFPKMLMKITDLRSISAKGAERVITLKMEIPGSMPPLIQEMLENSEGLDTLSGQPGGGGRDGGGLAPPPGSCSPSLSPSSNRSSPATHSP
The experiment can be described thus: Competitive radioligand (tritium labeled tRA) hydroxylapatite binding assay in E. coli expressed RAR-α. To be noted: read-out: Kd (mircomolar). The procedure: After correcting for non-specific binding, IC50 values were determined.

`COc1ccc(-c2ccc3cc(C(=O)O)ccc3c2)cc1C12CC3CC(CC(C3)C1)C2` [Adapalene]: the Kd stood at 0.3 µM.

Take `COc1ccc(-c2ccc3cc(C4=C(O)CCC4=O)ccc3c2)cc1C12CC3CC(CC(C3)C1)C2` [Example 8, 2-[6-(3-Adamantan-1-yl-4-methoxyphenyl)-naphthalen-2-yl]-3-hydroxy-cyclopent-2-enone]: the Kd was 16 µM.
